Test: Pharmacokinetic study of GT in DcNPs compared to CrEL (Example 2), plasma G, T and dFdU
Type: in vivo, BALB/c mice
Description: Drugs extracted from biological matrices such as plasma or tissue homogenates were quantified by a Shimadzu HPLC system coupled to a 3200 QTRAP mass spectrometer (Applied Biosystems, Grand Island, N.Y.). The HPLC system consisted of two Shimadzu LC-20A pumps, a DGU-20A5 degasser, and a Shimadzu SIL-20AC HT autosampler. The mass spectrometer was equipped with an electrospray ionization (ESI) TurbolonSpray source. The system was operated with Analyst software, version 1.5.2 (ABSciex, Framingham, Mass.). Chromatographic separation of G and T was achieved using a Synergi column (100×2.0 mm; 4-μm particle size) (Phenomenex, Torrance, Calif.) with an inline C8 guard column (4.0×2.0 mm) also from Phenomenex. The flow rate was set to 0.5 mL/min with a 5 μl sample injection volume. The mobile phase for separation consisted of pump A (20 mM Ammonium Acetate in water) and B (Reagent Alcohol). […] The needle was washed with isopropanol after each injection. Analytes were monitored using multiple-reaction monitoring (MRM) for positive ions.
Statistical comparisons were performed using 2-sided t-tests with Welch's correction for unequal variances. Significance probability α was set at 0.05. Pharmacokinetic parameters from non-compartmental analysis were calculated using the trapezoidal rule and relevant pharmacokinetic equations shown in Table 3.

O=c1ccn([C@@H]2O[C@H](CO)[C@@H](O)C2(F)F)c(=O)[nH]1 [dFdU, 2′,2′-difluoro-deoxyuridine]
plasma dFdU times higher than G at 3 hours (CrEL control dosage form): 50 times | plasma dFdU times lower than G at 3 hours (GT DcNP dosage form): 3.4 times | plasma concentration within 15 minutes (after GT in CrEL control dosage form IV, mice): 11836.7 ng/mL | concentration at 3 h (female, BALB/c, mouse, plasma, intravenous, after control CrEL dosing, 50/5 mg/kg G/T IV, mice): 4340 ng/mL
